Test results published in US5744462A, “Steroids useful as anti-cancer and anti-obesity agents” (Research Corporation Technologies, Inc., priority 1995, dated 1998).

Legend:
[1] = test system: mammalian glucose-6-phosphate dehydrogenase (G6PDH); details: cited from earlier work
[2] = Anti-obesity action, body weight, female Balb/c mice; type: in vivo, mouse (female Balb/c); details: 0.25% in diet
Procedure: Female Balb/c (8 weeks old) mice were obtained from
the Jackson Laboratory and were housed in polycarbonate cages
(6 mice/cage) in animal quarters maintained at 24 ± 1° C. with
12 hours of light and 12 hours of darkness each day. One
week after arrival, the mice were placed on a diet containing
either DHEA, 8354, or without steroid. Animals were weighed

[3] = Body weight and food consumption in the DMBA binding experiment; type: in vivo, mouse; details: two weeks of feeding
Procedure: Binding of [^3 H]DMBA to mouse skin DNA was determined as described in Pashko, L. L., and Schwartz, A. G. (1983), Effect of food restriction, dehydroepiandrosterone, or obesity on the binding of ^3 H-7,12-dimethylbenz(a)anthracene to mouse skin DNA, J. Gerontol., 38, 8-12. Values are mean±SD for 3 individual determinations, with pooled tissue from 2 mice used for each determination. DHEA or testosterone (400 ug in 0.2 ml acetone) was applied to the skin one hour before [^3 H]DMBA. The mean weight of the food restricted mice was 18.5±1.0 gm, n=6, of the ad libitum fed, 27.4±1.0 gm, n=6, of the ad libitum fed treated with DHEA, 28.2±0.9 gm, n=6, and of the ad libitum fed treated with testosterone, 28.3±0.9 gm, n=6, following two weeks of feeding. The average food consumed was, in gm/mouse/day, 2.2, 3.8, 3.8 and 4.0 for the food restricted, ad libitum fed, ad libitum fed plus DHEA, and ad libitum fed plus testosterone groups, respectively.

[4] = in vivo; cited from earlier work
mouse skin DNA = experiment: (3H) DMBA binding to skin DNA; type: in vivo, mouse (A/J); details: for effect on 3H-DMBA binding to skin DNA: mice
[5] = cited from earlier work
mouse epidermis = details: cited from earlier work
[6] = without suppressing appetite; cited from earlier work

C[C@]12CC[C@H](O)CC1=CC[C@@H]1[C@@H]2CC[C@]2(C)C(=O)CC[C@@H]12 [DHEA, Dehydroepiandrosterone]
inhibition of mammalian G6PDH [1]: potent non-competitive inhibitor
mean weekly weight ± S.D. ([2]; week 0, control 17.5 ± 1.4): 17.5 ± 1.5 grams
mean weekly weight ± S.D. ([2]; week 1, control 19.9 ± 1.2): 20.0 ± 0.9 grams
mean weekly weight ± S.D. ([2]; week 2, control 20.6 ± 1.0): 20.6 ± 0.9 grams
mean weekly weight ± S.D. ([2]; week 3, control 21.8 ± 0.8): 21.3 ± 1.3 grams
mean body weight ([3]; topical 400 ug, ad libitum fed 27.4±1.0): 28.2±0.9 gm
average food consumed ([3]; ad libitum fed 3.8): 3.8 gm/mouse/day
estrogenic effect after prolonged administration [4]: evidence of an estrogenic effect after prolonged administration
SPECIFIC ACTIVITY, (3H) DMBA binding to skin DNA (mouse skin DNA; 400 ug topical one hour before DMBA, ad libitum fed 116 ± 5.2): 66 ± 13 cpm/ug DNA
effect on 3H-DMBA binding to skin DNA (mouse skin DNA; four weeks, 400 mg/kg): does inhibit ^3 H-DMBA binding to skin DNA
effect on 3H-DMBA binding to skin DNA (mouse skin DNA; oral, doses well below 400 mg/kg): inactive
effect on 3H-DMBA binding to skin DNA (mouse skin DNA; single administration, 400 mg/kg): does not inhibit ^3 H-DMBA binding to skin DNA
effect on rate of binding of 3H-DMBA to skin DNA (mouse skin DNA; topical, in words (Table 4)): inhibits the rate of binding
enzyme-positive premalignant foci in the liver ([5]; 0.6%, 20-22 weeks, after 4 injections of carcinogen): inhibited the formation of enzyme-positive premalignant foci in the liver
liver basophilic lesions, enzyme-negative ([5]; after carcinogen): promoted the development of liver basophilic lesions which were enzyme-negative
capacity of TPA to stimulate 3H-thymidine incorporation (mouse epidermis): antagonizes
effect on obesity on long-term administration [6]: prevented the development of obesity without suppressing appetite
